These compounds were tested on Bmi-1 protein (assay: Sandwich ELISA Assay (Bmi-1 protein level in HT-1080 cells)).
Format: cell-based
Method: Cell Seeding and Compound Treatment (Day 1):
HT-1080 cells were seeded at 8000 cells/well (50 μL) in 96-well tissue culture plates. After the cells became adherent (3-4 hours), 2× diluted stocks of test compounds in 50 μL DMEM containing 1% DMSO (final DMSO concentration was 0.5%) were added and the plates were incubated at 37° C. under 5% CO2 for 40-48 hours.
ELISA Plate First Antibody Preparation (Day 2):
The First Antibody (Millipore Mouse, monoclonal to mouse Bmi-1, clone F6, catalog #05-637) diluted to 2 μg/mL in PBS was added (100 μL) to each well of a Nunc MaxiSorp 96-well ELISA plate. The plate was covered with a plate seal and allowed to stand overnight.
Cell Lysate Preparation (Day 3):
Fresh Lysis buffer (1×) was prepared on the day of the assay as follows: 1 mM EDTA, 150 mM NaCl, 0.5% Triton-X 100, 10 mM NaF, 20 mM B-Glycerophosphate, 1 mM DTT (in PBS, pH 7.2-7.4) and HALT protease inhibitor cocktail (1×) (Pierce #78410).
Lysis Buffer (1×, 40 μL) was added to each well and the plate was shaken for 5-10 minutes on an orbital shaker to allow cell lysis, then diluent (1% BSA in PBS in 0.5% NP40) (100 μL) was added to each well.
A standard curve was prepared at the following Bmi-1 concentrations: 8000, 4000, 2000, 1000, 500, 250, 125 and 0 pg/mL. The Bmi-1 Recombinant Protein Standard (Novus Biologicals PCGF4 Recombinant Protein (P01), catalog # H00000648-P01) used to prepare the standard curve was stored at −80° C. On first thaw, the Recombinant Protein Standard was diluted to 10 μg/μL in Blocking Buffer (1% BSA in PBS; BSA: Fisher Scientific Catalog #1600-100). Aliquots were taken and refrozen at −80° C. The aliquots may be kept at 4° C. and reused after first thaw, but only within 1-2 weeks. The Recombinant Protein Standard contains a GST-fusion tag that appears at approximately 70 Kda on Western Blot.
The prepared ELISA plate was washed 3× with Wash Buffer (0.05% Tween-20 in PBS). The final wash was removed from the plate and the plate was blotted dry. Blocking Buffer (300 μL) (1% BSA in PBS) was added to each well. The plate was covered with a plate seal and incubated at room temperature for 1 hour. The blocked plate was washed 3× with Wash Buffer, then the final wash was removed and the plate was blotted dry. The previously prepared samples and standards were added (100 μL/well) and the plate was covered with a plate seal and incubated at 4° C. overnight.
The prepared ELISA plate was removed from incubation and allowed to stand at room temperature for 30 minutes, then washed and blotted dry. The Second Antibody (Cell Signaling Rabbit anti-Bmi-1, Cat#2830) diluted to 1:600 in Blocking Buffer was added (100 μL) to each well, except as needed for background control wells. The plate was covered with a plate seal and incubated for 1.5 hrs at room temperature.
The ELISA plate was washed and blotted dry as previously described. The Third Antibody (Cell Signaling HRP conjugated anti-rabbit IgG (CellSignaling, Cat#:7074) diluted to 1:300 in Blocking Buffer was added (100 μL) to each well, except as needed for background control wells. The plate was incubated for 1 hr at room temperature.
The plate was washed and blotted dry, then a previously prepared TMB substrate (TMB substrate kit, Pierce catalog #34021) (prepared by mixing kit reagents 1:1) (100 μL) was added per well. The plate was incubated for 20-30 minutes at room temperature in the dark, then Stop Solution (2 M sulfuric acid in water) (50 μL) was added per well. The plates were read at OD450 (experimental) and OD570 (reference).

Compound	EC50
CCc1nc2cc(F)c(F)cc2n1-c1cc(N)nc(Nc2ccc(C(F)(F)F)cc2)n1 [Cpd 65, 6-(2-ethyl-5,6-difluoro-1H-benzimidazol-1-yl)-N^2-[4-(trifluoromethyl)phenyl]pyrimidine-2,4-diamine]	10 to 100 nM
Nc1cc(-n2c(C3CC3)nc3cc(F)c(F)cc32)nc(Nc2ccc(OC(F)F)cc2)n1 [Cpd 66, 6-(2-cyclopropyl-5,6-difluoro-1H-benzimidazol-1-yl)-N^2-[4-(difluoromethoxy)phenyl]pyrimidine-2,4-diamine]	1 to 10 nM
N#Cc1cc(-n2c(C3CC3)nc3cc(F)c(F)cc32)nc(Nc2ccc(C(F)(F)F)cc2)n1 [Cpd 67, 6-(2-cyclopropyl-5,6-difluoro-1H-benzimidazol-1-yl)-2-{[4-(trifluoromethyl)phenyl]amino}pyrimidine-4-carbonitrile]	100 to 3000 nM
Cc1nc2cc(F)c(F)cc2n1-c1cc(C#N)nc(Nc2ccc(C(F)(F)F)cc2)n1 [Cpd 68, 6-(5,6-difluoro-2-methyl-1H-benzimidazol-1-yl)-2-{[4-(trifluoromethyl)phenyl]amino}pyrimidine-4-carbonitrile]	100 to 3000 nM
Nc1cc(-n2c(C(F)F)nc3ccccc32)nc(Nc2ccc(C(F)(F)F)cc2)n1 [Cpd 69, 6-[2-(difluoromethyl)-1H-benzimidazol-1-yl]-N^2-[4-(trifluoromethyl)phenyl]pyrimidine-2,4-diamine]	10 to 100 nM
Nc1cc(-n2c(C(F)F)nc3ccc(F)cc32)nc(Nc2ccc(OC(F)F)cc2)n1 [Cpd 72, N^2-[4-(difluoromethoxy)phenyl]-6-[2-(difluoromethyl)-6-fluoro-1H-benzimidazol-1-yl]pyrimidine-2,4-diamine]	10 to 100 nM
NC(=O)c1cccc(Nc2nccc(-c3cnc4ccccn34)n2)c1 [Cpd 75, 3-{[4-(imidazo[1,2-a]pyridin-3-yl)pyrimidin-2-yl]amino}benzamide]	100 to 3000 nM
CCc1nc2cc(F)c(F)cc2n1-c1cc(N)nc(Nc2ccc(OC(F)F)cc2)n1 [Cpd 76, N^2-[4-(difluoromethoxy)phenyl]-6-(2-ethyl-5,6-difluoro-1H-benzimidazol-1-yl)pyrimidine-2,4-diamine]	10 to 100 nM
Cc1nc2cc(F)c(F)cc2n1-c1cc(N)nc(Nc2ccc(OC(F)F)cc2)n1 [Cpd 77, N^2-[4-(difluoromethoxy)phenyl]-6-(5,6-difluoro-2-methyl-1H-benzimidazol-1-yl)pyrimidine-2,4-diamine]	10 to 100 nM
Cc1nn2ccccc2c1-c1cc(N)nc(Nc2ccc(C(F)(F)F)cc2)n1 [Cpd 82, 6-(2-methylpyrazolo[1,5-a]pyridin-3-yl)-N^2-[4-(trifluoromethyl)phenyl]pyrimidine-2,4-diamine]	10 to 100 nM
Cc1nc2ccccc2n1-c1cc(N)nc(Nc2ccc(OC(F)F)cc2)n1 [Cpd 83, N^2-[4-(difluoromethoxy)phenyl]-6-(2-methyl-1H-benzimidazol-1-yl)pyrimidine-2,4-diamine]	10 to 100 nM
CCc1nc2ccccc2n1-c1cc(N)nc(Nc2ccc(OC(F)F)cc2)n1 [Cpd 84, N^2-[4-(difluoromethoxy)phenyl]-6-(2-ethyl-1H-benzimidazol-1-yl)pyrimidine-2,4-diamine]	10 to 100 nM
Nc1cc(-n2c(C3CC3)nc3ccccc32)nc(Nc2ccc(OC(F)F)cc2)n1 [Cpd 85, 6-(2-cyclopropyl-1H-benzimidazol-1-yl)-N^2-[4-(difluoromethoxy)phenyl]pyrimidine-2,4-diamine]	10 to 100 nM
Nc1cc(-n2c(C3CC3)nc3cc(Cl)ccc32)nc(Nc2ccc(C(F)(F)F)cc2)n1 [Cpd 86, 6-(5-chloro-2-cyclopropyl-1H-benzimidazol-1-yl)-N^2-[4-(trifluoromethyl)phenyl]pyrimidine-2,4-diamine]	100 to 3000 nM
Nc1cc(-n2c(C3CC3)nc3ccc(Cl)cc32)nc(Nc2ccc(C(F)(F)F)cc2)n1 [Cpd 87, 6-(6-chloro-2-cyclopropyl-1H-benzimidazol-1-yl)-N^2-[4-(trifluoromethyl)phenyl]pyrimidine-2,4-diamine]	10 to 100 nM
CCc1nn2ccccc2c1-c1cc(N)nc(Nc2ccc(C(F)(F)F)cc2)n1 [Cpd 90, 6-(2-ethylpyrazolo[1,5-a]pyridin-3-yl)-N^2-[4-(trifluoromethyl)phenyl]pyrimidine-2,4-diamine]	10 to 100 nM
CCc1nn2ccccc2c1-c1cc(N)nc(Nc2ccc(OC(F)F)cc2)n1 [Cpd 91, N^2-[4-(difluoromethoxy)phenyl]-6-(2-ethylpyrazolo[1,5-a]pyridin-3-yl)pyrimidine-2,4-diamine]	10 to 100 nM
Nc1cc(-n2c(C3CC3)nc3cc(Cl)ccc32)nc(Nc2ccc(OC(F)F)cc2)n1 [Cpd 92, 6-(5-chloro-2-cyclopropyl-1H-benzimidazol-1-yl)-N^2-[4-(difluoromethoxy)phenyl]pyrimidine-2,4-diamine]	10 to 100 nM
Nc1cc(-n2c(C3CC3)nc3ccc(Cl)cc32)nc(Nc2ccc(OC(F)F)cc2)n1 [Cpd 93, 6-(6-chloro-2-cyclopropyl-1H-benzimidazol-1-yl)-N^2-[4-(difluoromethoxy)phenyl]pyrimidine-2,4-diamine]	10 to 100 nM
Cc1nc2ccccc2n1-c1nc(Nc2ccc(OC(F)F)cc2)nc(N)c1F [Cpd 94, N^2-[4-(difluoromethoxy)phenyl]-5-fluoro-6-(2-methyl-1H-benzimidazol-1-yl)pyrimidine-2,4-diamine]	10 to 100 nM
CCc1nc2ccccc2n1-c1cc(N)nc(Nc2ccc(C(F)(F)F)nc2)n1 [Cpd 95, 6-(2-ethyl-1H-benzimidazol-1-yl)-N^2-[6-(trifluoromethyl)pyridin-3-yl]pyrimidine-2,4-diamine]	10 to 100 nM
CCc1nc2cc(Cl)ccc2n1-c1cc(N)nc(Nc2ccc(C(F)(F)F)cc2)n1 [Cpd 96, 6-(5-chloro-2-ethyl-1H-benzimidazol-1-yl)-N^2-[4-(trifluoromethyl)phenyl]pyrimidine-2,4-diamine]	100 to 3000 nM
CCc1nc2ccc(Cl)cc2n1-c1cc(N)nc(Nc2ccc(C(F)(F)F)cc2)n1 [Cpd 97, 6-(6-chloro-2-ethyl-1H-benzimidazol-1-yl)-N^2-[4-(trifluoromethyl)phenyl]pyrimidine-2,4-diamine]	10 to 100 nM
Nc1cc(-c2c(C(F)(F)F)nn3ccccc23)nc(Nc2ccc(C(F)(F)F)cc2)n1 [Cpd 98, N^2-[4-(trifluoromethyl)phenyl]-6-[2-(trifluoromethyl)pyrazolo[1,5-a]pyridin-3-yl]pyrimidine-2,4-diamine]	10 to 100 nM
Cc1nc2ncc(F)cc2n1-c1cc(N)nc(Nc2ccc(C(F)(F)F)cc2)n1 [Cpd 100, 6-(6-fluoro-2-methyl-1H-imidazo[4,5-b]pyridin-1-yl)-N^2-[4-(trifluoromethyl)phenyl]pyrimidine-2,4-diamine]	1 to 10 nM
Cc1nc2ncc(F)cc2n1-c1cc(N)nc(Nc2ccc(OC(F)F)cc2)n1 [Cpd 101, N^2-[4-(difluoromethoxy)phenyl]-6-(6-fluoro-2-methyl-1H-imidazo[4,5-b]pyridin-1-yl)pyrimidine-2,4-diamine]	1 to 10 nM
Cc1nc2cc(F)ccc2n1-c1cc(N)nc(Nc2ccc(C(F)(F)F)cc2)n1 [Cpd 102, 6-(5-fluoro-2-methyl-1H-benzimidazol-1-yl)-N^2-[4-(trifluoromethyl)phenyl]pyrimidine-2,4-diamine]	10 to 100 nM
CCc1nc2cc(F)ccc2n1-c1cc(N)nc(Nc2ccc(C(F)(F)F)cc2)n1 [Cpd 104, 6-(2-ethyl-5-fluoro-1-benzimidazol-1-yl)-N^2-[4-(trifluoromethyl)phenyl]pyrimidine-2,4-diamine]	10 to 100 nM
Nc1cc(-c2c(C3CC3)nn3ccc(F)cc23)nc(Nc2ccc(C(F)(F)F)cc2)n1 [Cpd 107, 6-(2-cyclopropyl-5-fluoropyrazolo[1,5-a]pyridin-3-yl)-N^2-[4-(trifluoromethyl)phenyl]pyrimidine-2,4-diamine]	100 to 3000 nM

— patent publication US10370371B2, “Substituted pyrimidine Bmi-1 inhibitors” (PTC Therapeutics, Inc., priority 2013, dated 2019)
